Source: ChEMBL document CHEMBL3301361, “Experimental in vitro DMPK and physicochemical data on a set of publicly disclosed compounds”
In brackets after ≈: the same amount, converted by molar mass. Residues, ends and D or L forms follow the SMILES beside them.

Assays:
in vitro [1] = details: human
in vitro [2] = details: hepatocytes
in vitro [3] = details: human, plasma
physchem [4] = details: octan-1-ol/water
physchem [5] = details: pH 7.4 buffer

Row | hepatocyte CLint (in vitro [2]) | fraction unbound at 5 h (in vitro [3]; PPB) | logD (physchem [4]; pH 7.4, LogD7.4) | Structure (SMILES) | further results
1 | 89.1 µL/min/1e6 cells | 0.0139 | 2.12 | Cc1cn([C@H]2CCCN(S(=O)(=O)c3ccc(O)c(Oc4ccc(Cl)cc4)c3)C2)c(=O)[nH]c1=O | 
2 | 21.9 µL/min/1e6 cells | 0.124 | 2.24 | CC(=O)Nc1ccc2ccn(-c3cc(NC4COC4)n4ncc(C#N)c4n3)c2c1 | 
3 | > 150 µL/min/1e6 cells |  |  | CCn1c(SCC(=O)Nc2cccc(C)c2)nnc1-c1ccccc1 | microsomal CLint (in vitro [1]; microsomes): > 150 µL/min/mg
4 | 30.9 µL/min/1e6 cells |  |  | CC(=O)N1N=C(c2ccc(Br)cc2)CC1c1ccc(C)cc1 (configuration not stated) | microsomal CLint (in vitro [1]; liver microsomes): 41.7 µL/min/mg
5 | 19.1 µL/min/1e6 cells | 0.107 | -0.25 | Cc1cn([C@H]2CCCN([C@H](CC3CCOCC3)c3ccc(C(=O)O)c(Oc4cccc(Cl)c4)c3)C2)c(=O)[nH]c1=O | 
6 | 91.2 µL/min/1e6 cells |  |  | Cc1cccc(NC(=O)Nc2cccc3ccccc23)c1 | microsomal CLint (in vitro [1]; liver microsomes): 70.8 µL/min/mg
7 | 38 µL/min/1e6 cells | 0.0139 | 2.3 | Cc1cn([C@H]2CCCN(S(=O)(=O)c3ccc(O)c(Oc4cccc(Br)c4)c3)C2)c(=O)[nH]c1=O | 
8 | 3.31 µL/min/1e6 cells |  |  | O=C(NS(=O)(=O)c1ccccc1Cl)c1ccc[nH]1 | microsomal CLint (in vitro [1]; liver microsomes): < 3 µL/min/mg
9 | 36.3 µL/min/1e6 cells | 0.0119 | 1.68 | CCC(CC)C[C@H](c1ccc(C(=O)O)c(Oc2cccc(Cl)c2)c1)N1CCC[C@H](n2cc(C)c(=O)[nH]c2=O)C1 | 
10 | > 150 µL/min/1e6 cells |  |  | Cc1ccc(-c2nnc(SCC(=O)N3CCN(c4ccccc4)CC3)o2)cc1 | microsomal CLint (in vitro [1]; microsomes): > 150 µL/min/mg
11 | > 150 µL/min/1e6 cells |  | 3.7 | C=CC(=O)Nc1ccc2ncnc(Nc3cccc(C)c3)c2c1 | solubility thermodynamic (physchem [5]): 16.6 µM (≈ 5.05 µg/mL)
12 | 16.6 µL/min/1e6 cells |  |  | CC(C)c1ccc(NC(=O)Cn2cnc3c2c(=O)n(C)c(=O)n3C)cc1 | microsomal CLint (in vitro [1]; microsomes): 18.2 µL/min/mg
13 | < 3 µL/min/1e6 cells | 0.0736 | 0.78 | Cc1ccc(S(=O)(=O)Nc2c(C(=O)N[C@@H](C)C(C)(C)C)c(C)nn2C2CCOC2)cc1 (some centres not stated) | 
14 | 35.5 µL/min/1e6 cells | 0.166 | 0.68 | COc1cc2c(ccc(=O)n2CCN2CCC(NCc3cc4c(cn3)OCCO4)CC2)cn1 | 
15 | 70.8 µL/min/1e6 cells | 0.0209 | 3.16 | C[C@@]1(C(=O)Nc2ccc(F)nc2)CCCN1c1nc(Nc2cc(C3CC3)n[nH]2)c2cccn2n1 [BMS-754807] | 
16 | 17 µL/min/1e6 cells | 0.253 | 1.82 | CN[C@@H](C)C(=O)N[C@H]1CN(C(=O)CC(C)C)CC[C@H]2CC[C@@H](C(=O)NC(c3ccccc3)c3ccccc3)N2C1=O [XEVINAPANT] | 
17 | 74.1 µL/min/1e6 cells | 0.0119 |  | Cc1cn([C@H]2CCCN(S(=O)(=O)c3ccc(O)c(Oc4cc(F)cc(Cl)c4)c3)C2)c(=O)[nH]c1=O | 
18 | 52.5 µL/min/1e6 cells | 0.0099 | 1.99 | CCCC(C)(C)C[C@H](c1ccc(C(=O)O)c(Oc2cccc(Cl)c2)c1)N1CCC[C@H](n2cc(C)c(=O)[nH]c2=O)C1 | 
19 | < 3 µL/min/1e6 cells | 0.0099 | 1.12 | Cc1cn([C@H]2CCCN([C@@H](CC(C)(C)C)c3ccc(C(=O)O)c(Oc4cccc(Br)c4)c3)C2)c(=O)[nH]c1=O | 
20 | 5.13 µL/min/1e6 cells | 0.103 | 2.37 | N#CCNC(=O)c1ccc(-c2ccnc(Nc3ccc(N4CCOCC4)cc3)n2)cc1 [MOMELOTINIB] | 
21 | > 150 µL/min/1e6 cells |  |  | COc1cccc(CNc2nc(NC(C)C)nc3ccsc23)c1OC | fraction unbound at 5 h (in vitro [3]): 0.0027
22 | 5.25 µL/min/1e6 cells |  |  | CC(NC(=O)c1cc(O)nc2ccccc12)c1ccccc1 (configuration not stated) | fraction unbound at 5 h (in vitro [3]): 0.36; logD (physchem [4]; pH 7.4): 2.2
23 | 21.9 µL/min/1e6 cells |  | 2.61 | CNC(=O)c1c(F)cccc1Nc1nc(Nc2cc3c(cc2OC)CCN3C(=O)CN(C)C)nc2[nH]ccc12 | 
24 | > 150 µL/min/1e6 cells |  |  | CC(=O)[C@@]1(O)CC[C@H]2[C@@H]3CCC4=CC(=O)CCC4=C3[C@@H](c3ccc(N(C)C)cc3)C[C@@]21C [ULIPRISTAL] | fraction unbound at 5 h (in vitro [3]): 0.0049

The next lines start with the compound.

Row | Structure (SMILES) | hepatocyte CLint (in vitro [2]) | fraction unbound at 5 h (in vitro [3]; PPB) | logD (physchem [4]; pH 7.4, LogD7.4) | further results
25 | O=CN(O)CCCP(=O)(O)O [FOSMIDOMYCIN] | < 3 µL/min/1e6 cells |  |  | microsomal CLint (in vitro [1]; liver microsomes): 3.02 µL/min/mg
26 | COc1ccc(-c2nc3ccccc3c(=O)[nH]2)cc1 | > 150 µL/min/1e6 cells |  |  | microsomal CLint (in vitro [1]; liver microsomes): > 150 µL/min/mg
27 | Cc1cc(Nc2nc(N[C@@H](C)c3ccc(F)cn3)c(C#N)cc2Cl)n[nH]1 | 6.17 µL/min/1e6 cells | 0.0358 |  | 
28 | CCCCCCCC(=O)N[C@@H](CCN)C(=O)N[C@H](C(=O)N[C@@H](CCN)C(=O)N[C@H]1CCNC(=O)[C@H](C)NC(=O)[C@H](CCN)NC(=O)[C@H](CCN)NC(=O)[C@H](CC(C)C)NC(=O)[C@@H](Cc2ccccc2)NC(=O)[C@H](CCN)NC1=O)[C@@H](C)O (HELM PEPTIDE1{[CCCCCCCC(=O)[*:2]].[Dab].T.[Dab].[Dab].[Dab].[dF].L.[Dab].[Dab].A}$PEPTIDE1,PEPTIDE1,5:R3-11:R2$$$V2.0) | < 3 µL/min/1e6 cells | 0.0581 |  | 
29 | CS(=O)(=O)Nc1ccc(CCOCCCS(=O)(=O)CCNCCc2ccc(O)c3nc(O)sc23)cc1 | 105 µL/min/1e6 cells |  |  | microsomal CLint (in vitro [1]; liver microsomes): 28 µL/min/mg
30 | C[C@@H](O)[C@H]1C(=O)N2C(C(=O)O)=C(SC3CN(C4=NCCS4)C3)[C@H](C)[C@H]12 [TEBIPENEM] | 4.79 µL/min/1e6 cells |  |  | microsomal CLint (in vitro [1]; liver microsomes): 23.4 µL/min/mg
31 | CCc1cccc2c1N(C)Cc1cc3c(cc1-2)OCO3 | > 150 µL/min/1e6 cells |  |  | microsomal CLint (in vitro [1]; liver microsomes): 44.7 µL/min/mg
32 | CC(=O)N[C@@H](CCN)C(=O)N[C@H](C(=O)N[C@@H](CCN)C(=O)N[C@H]1CCNC(=O)[C@H]([C@@H](C)O)NC(=O)[C@H](CCN)NC(=O)[C@H](CCN)NC(=O)[C@H](CC(C)C)NC(=O)[C@@H](Cc2ccccc2)NC(=O)[C@H](CCN)NC1=O)[C@@H](C)O [DEACYL POLYMYXIN B] (HELM PEPTIDE1{[ac].[Dab].T.[Dab].[Dab].[Dab].[dF].L.[Dab].[Dab].T}$PEPTIDE1,PEPTIDE1,5:R3-11:R2$$$V2.0) | < 3 µL/min/1e6 cells | 0.355 |  | 
33 | CCn1c(SCC(=O)Nc2cc(C)on2)nnc1-c1ccccc1 | > 150 µL/min/1e6 cells |  |  | microsomal CLint (in vitro [1]; liver microsomes): 32.4 µL/min/mg
34 | COc1ccc2ncc(C#N)c(CCN3CCC(NCc4cc5c(cn4)OCS5)CC3)c2c1 | 72.4 µL/min/1e6 cells | 0.089 | 2.55 | 
35 | N#Cc1ccc(C(=O)Nc2ccc(-n3ccnc3)nc2)cc1 | 20.4 µL/min/1e6 cells |  |  | microsomal CLint (in vitro [1]; microsomes): 6.31 µL/min/mg
36 | C[C@@H]1CN(Cc2cc(Cl)ccc2OCC(=O)O)CCN1S(=O)(=O)c1ccccc1 | 7.48 µL/min/1e6 cells | 0.0051 |  | 
37 | CO[C@H]1CC[C@]2(CC1)Cc1ccc(-c3cc(Cl)cc(C#N)c3)cc1C21N=C(C)C(N)=N1 (some centres not stated) | 12.6 µL/min/1e6 cells | 0.0209 | 3.8 | 
38 | Cc1cc(F)ccc1OC1CCN(CC2CCN([C@@H](Cc3ccc(F)cc3)C(=O)O)CC2)CC1 | < 3 µL/min/1e6 cells |  |  | microsomal CLint (in vitro [1]; liver microsomes): < 3 µL/min/mg
39 | CCCCCCCC(=O)N[C@@H](CCN)C(=O)N[C@@H](C)C(=O)N[C@@H](CCN)C(=O)N[C@H]1CCNC(=O)[C@H]([C@@H](C)O)NC(=O)[C@H](CCN)NC(=O)[C@H](CCN)NC(=O)[C@H](CC(C)C)NC(=O)[C@@H](Cc2ccccc2)NC(=O)[C@H](CCN)NC1=O (HELM PEPTIDE1{[CCCCCCCC(=O)[*:2]].[Dab].A.[Dab].[Dab].[Dab].[dF].L.[Dab].[Dab].T}$PEPTIDE1,PEPTIDE1,5:R3-11:R2$$$V2.0) | < 3 µL/min/1e6 cells | 0.0768 |  | 
40 | CC(C(=O)O)c1ccc(C(=O)c2cccs2)cc1 (configuration not stated) [SUPROFEN] | 16 µL/min/1e6 cells |  |  | microsomal CLint (in vitro [1]; microsomes): < 3 µL/min/mg

Row | Structure (SMILES) | hepatocyte CLint (in vitro [2]) | fraction unbound at 5 h (in vitro [3]; PPB) | logD (physchem [4]; pH 7.4, LogD7.4) | further results
41 | CCCCCCCC(=O)N[C@@H](C)C(=O)N[C@H](C(=O)N[C@@H](CCN)C(=O)N[C@H]1CCNC(=O)[C@H]([C@@H](C)O)NC(=O)[C@H](CCN)NC(=O)[C@H](CCN)NC(=O)[C@H](CC(C)C)NC(=O)[C@@H](Cc2ccccc2)NC(=O)[C@H](CCN)NC1=O)[C@@H](C)O (HELM PEPTIDE1{[CCCCCCCC(=O)[*:2]].A.T.[Dab].[Dab].[Dab].[dF].L.[Dab].[Dab].T}$PEPTIDE1,PEPTIDE1,5:R3-11:R2$$$V2.0) | < 3 µL/min/1e6 cells | 0.107 |  | 
42 | Cc1cnc(Nc2ccc(F)cc2Cl)nc1-c1c[nH]c(C(=O)N[C@H](CO)c2cccc(Cl)c2)c1 | 12.9 µL/min/1e6 cells |  |  | microsomal CLint (in vitro [1]; microsomes): 25.1 µL/min/mg
43 | C[C@H]1CN(Cc2cc(Cl)ccc2CCC(=O)O)CCN1C(=O)Cc1ccccc1 | < 3 µL/min/1e6 cells |  |  | microsomal CLint (in vitro [1]; liver microsomes): < 3 µL/min/mg
44 | Cc1c(Sc2ccc(Cl)cc2)c2cc(F)ccc2n1CC(=O)O | 34 µL/min/1e6 cells |  |  | microsomal CLint (in vitro [1]; liver microsomes): < 3 µL/min/mg
45 | COc1ccc(C#Cc2ccc([C@@H]3[C@H](CO)N4CCCCN(C(=O)Nc5cccc(F)c5)C[C@@H]34)cc2)cc1 | 18.2 µL/min/1e6 cells |  |  | microsomal CLint (in vitro [1]; microsomes): 50.1 µL/min/mg
46 | Nc1ccc(-c2ccccc2Cl)cc1 | 123 µL/min/1e6 cells |  |  | microsomal CLint (in vitro [1]; microsomes): 39.8 µL/min/mg
47 | O=c1cc(-c2cccnc2)[nH]c2cc(C(O)c3ccccc3)ccc12 (configuration not stated) | 46 µL/min/1e6 cells | 0.0268 |  | solubility thermodynamic (physchem [5]): 288 µM (≈ 94.7 µg/mL)
48 | CN(CCc1ccc(O)c2[nH]c(=O)sc12)CCN(C)C(=O)CCOCCc1ccccc1 | > 150 µL/min/1e6 cells |  |  | microsomal CLint (in vitro [1]; liver microsomes): > 150 µL/min/mg
49 | Cc1ccc(CO)cc1N(C)c1ccnc(Nc2cc(N3CCOCC3)cc(N3CCOCC3)c2)n1 | 31.6 µL/min/1e6 cells | 0.0818 | 2.94 | solubility thermodynamic (physchem [5]): 195 µM (≈ 95.7 µg/mL)
50 | O=c1c2c3n(c(=O)cc2[nH]n1-c1ccccc1Cl)CCCN(Cc1ccccc1)C3 | < 3 µL/min/1e6 cells |  |  | microsomal CLint (in vitro [1]; microsomes): 32.4 µL/min/mg
51 | Cn1c(=O)c(-c2c(Cl)cccc2Cl)cc2cnc(Nc3ccc(F)cc3)nc21 | 6.17 µL/min/1e6 cells |  |  | microsomal CLint (in vitro [1]; microsomes): 132 µL/min/mg
52 | O=c1cc(-c2cccnc2)[nH]c2cc(Cc3ccccc3)ccc12 | 50 µL/min/1e6 cells | 0.0051 | 3.46 | solubility thermodynamic (physchem [5]): 1.7 µM (≈ 0.531 µg/mL)
53 | C[C@@](C(=O)O[C@H]1C[N+]2(CCCc3ccncc3)CCC1CC2)(c1ccccc1)N1CCCCC1 | 82 µL/min/1e6 cells |  |  | fraction unbound at 5 h (in vitro [3]): 0.483
54 | NC1(c2ccc(-c3nc4ccccc4cc3-c3ccccc3)cc2)CCC1 | 148 µL/min/1e6 cells |  |  | solubility thermodynamic (physchem [5]): 288 µM (≈ 101 µg/mL)
55 | CC(=O)Nc1ccc2c(c1)c(-c1cc(NC3CC3)n3ncc(C#N)c3n1)cn2CCCO | 12.3 µL/min/1e6 cells | 0.0119 | 2.48 | 
